These results are taken from ChEMBL document CHEMBL4321785, “Challenges and Opportunities for Therapeutics Targeting the Voltage-Gated Sodium Channel Isoform NaV1.7” (J Med Chem, 2019).

Structures are written as SMILES.

The term Kd denotes the equilibrium constant for the complex coming apart. As a reminder, the fraction unbound is the share of the substance not bound to proteins or other matrix. The term IC50 denotes the point on the concentration scale where inhibition reaches its midpoint.

For data set [1], the target named is T1, Sodium channel protein type 4 subunit alpha (Homo sapiens, UniProt P35499). Description: Binding affinity to human recombinant Nav1.4 by radioligand binding assay.
In data set [2] the target is T2, Sodium channel protein type 5 subunit alpha (Homo sapiens, UniProt Q14524). Description: Binding affinity to human recombinant Nav1.5 by radioligand binding assay.
The nature of data set [3]: Unbound fraction in mouse plasma. It counts as ADME, cell-free.
The nature of data set [4]: Ratio of unbound plasma concentration in mouse model of inherited erythromelalgia to Kd for binding affinity to recombinant human Nav1.7 by radioligand binding assay. In kind it is ADME. Conditions: in vivo.
Data set [5] is described as follows: Ratio of unbound plasma concentration in mouse model of formalin-induced pain to Kd for binding affinity to mouse Nav1.7 by radioligand binding assay. The following applies: in vivo. It counts as ADME.
The nature of data set [6]: Ratio of unbound plasma concentration in mouse model of CFA-induced cold allodynia to Kd for binding affinity to mouse Nav1.7 by radioligand binding assay. In kind it is ADME. Conditions: in vivo.
Data set [7] can be described thus: Ratio of unbound plasma concentration in mouse model of STZ-induced pain measured to Kd for binding affinity to mouse Nav1.7 by radioligand binding assay. In kind it is ADME. Conditions: in vivo.
Data set [8] concerns the target Sodium channel protein type 9 subunit alpha (Mus musculus, UniProt Q62205). In words: Binding affinity to mouse Nav1.7 by radioligand binding assay.
Data set [9] concerns the target T3, Sodium channel protein type 1 subunit alpha (Homo sapiens, UniProt P35498). Description: Binding affinity to human recombinant Nav1.1 by radioligand binding assay.
The target in data set [10] is T4, Sodium channel protein type 2 subunit alpha (Homo sapiens, UniProt Q99250). Description: Binding affinity to human recombinant Nav1.2 by radioligand binding assay.
T4 sequence (Q99250 whole entry): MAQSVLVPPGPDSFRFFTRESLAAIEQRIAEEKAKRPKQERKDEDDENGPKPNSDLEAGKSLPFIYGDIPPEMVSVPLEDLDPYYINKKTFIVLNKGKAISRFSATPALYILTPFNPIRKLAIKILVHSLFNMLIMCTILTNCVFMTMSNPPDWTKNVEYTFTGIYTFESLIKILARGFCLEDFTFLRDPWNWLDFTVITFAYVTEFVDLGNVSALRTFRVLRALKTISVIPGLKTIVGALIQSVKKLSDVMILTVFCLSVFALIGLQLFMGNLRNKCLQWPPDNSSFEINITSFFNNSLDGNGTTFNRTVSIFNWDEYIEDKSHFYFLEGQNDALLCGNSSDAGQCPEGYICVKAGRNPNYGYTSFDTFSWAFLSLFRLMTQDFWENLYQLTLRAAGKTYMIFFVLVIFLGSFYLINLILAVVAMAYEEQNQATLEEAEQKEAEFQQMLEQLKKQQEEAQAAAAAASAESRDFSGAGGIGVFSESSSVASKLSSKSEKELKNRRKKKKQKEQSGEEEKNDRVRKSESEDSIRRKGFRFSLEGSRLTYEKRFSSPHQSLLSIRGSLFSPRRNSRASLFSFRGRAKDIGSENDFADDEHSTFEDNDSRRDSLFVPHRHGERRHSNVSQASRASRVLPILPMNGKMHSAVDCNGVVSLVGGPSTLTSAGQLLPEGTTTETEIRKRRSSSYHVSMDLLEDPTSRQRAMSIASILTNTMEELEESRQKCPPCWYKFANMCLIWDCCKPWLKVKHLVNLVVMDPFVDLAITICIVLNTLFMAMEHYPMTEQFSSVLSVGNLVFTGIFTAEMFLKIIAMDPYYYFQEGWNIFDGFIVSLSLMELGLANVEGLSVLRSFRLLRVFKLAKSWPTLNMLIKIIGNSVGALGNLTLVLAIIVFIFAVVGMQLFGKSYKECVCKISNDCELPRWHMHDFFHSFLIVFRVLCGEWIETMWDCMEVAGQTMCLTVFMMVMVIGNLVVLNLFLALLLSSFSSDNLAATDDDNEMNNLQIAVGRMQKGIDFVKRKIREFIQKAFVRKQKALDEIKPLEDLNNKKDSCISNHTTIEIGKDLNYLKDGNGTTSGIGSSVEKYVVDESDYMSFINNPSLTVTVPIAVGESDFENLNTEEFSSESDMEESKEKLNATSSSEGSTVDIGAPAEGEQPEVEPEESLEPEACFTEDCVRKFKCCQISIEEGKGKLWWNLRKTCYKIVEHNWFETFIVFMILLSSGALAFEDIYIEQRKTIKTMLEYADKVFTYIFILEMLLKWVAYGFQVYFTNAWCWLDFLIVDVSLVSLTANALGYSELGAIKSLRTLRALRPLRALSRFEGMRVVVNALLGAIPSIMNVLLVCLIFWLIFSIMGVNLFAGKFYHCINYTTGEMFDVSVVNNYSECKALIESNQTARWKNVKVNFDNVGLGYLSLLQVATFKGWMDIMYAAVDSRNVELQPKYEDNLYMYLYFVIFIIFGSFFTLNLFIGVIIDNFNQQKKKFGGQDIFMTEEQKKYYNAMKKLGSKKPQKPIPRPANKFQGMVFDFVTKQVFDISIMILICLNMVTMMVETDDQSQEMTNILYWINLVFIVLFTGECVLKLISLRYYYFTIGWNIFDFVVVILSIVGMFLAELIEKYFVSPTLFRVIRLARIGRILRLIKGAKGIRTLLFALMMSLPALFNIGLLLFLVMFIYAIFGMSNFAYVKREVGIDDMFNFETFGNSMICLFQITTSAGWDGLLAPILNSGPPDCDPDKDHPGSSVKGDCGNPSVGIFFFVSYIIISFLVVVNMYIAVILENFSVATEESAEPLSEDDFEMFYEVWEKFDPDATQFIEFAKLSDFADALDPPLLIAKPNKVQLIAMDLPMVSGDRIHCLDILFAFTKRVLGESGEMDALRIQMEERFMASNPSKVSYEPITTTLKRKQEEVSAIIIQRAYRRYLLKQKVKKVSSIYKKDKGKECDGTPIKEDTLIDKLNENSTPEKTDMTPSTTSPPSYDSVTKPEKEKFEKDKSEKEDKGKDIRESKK
The target in data set [11] is Sodium channel protein type 3 subunit alpha (Homo sapiens, UniProt Q9NY46). In words: Binding affinity to human recombinant Nav1.3 by radioligand binding assay.
The target of data set [12] is T5, Sodium channel protein type 8 subunit alpha (Homo sapiens, UniProt Q9UQD0). In words: Binding affinity to human recombinant Nav1.6 by radioligand binding assay.
T5 sequence (Q9UQD0 whole entry): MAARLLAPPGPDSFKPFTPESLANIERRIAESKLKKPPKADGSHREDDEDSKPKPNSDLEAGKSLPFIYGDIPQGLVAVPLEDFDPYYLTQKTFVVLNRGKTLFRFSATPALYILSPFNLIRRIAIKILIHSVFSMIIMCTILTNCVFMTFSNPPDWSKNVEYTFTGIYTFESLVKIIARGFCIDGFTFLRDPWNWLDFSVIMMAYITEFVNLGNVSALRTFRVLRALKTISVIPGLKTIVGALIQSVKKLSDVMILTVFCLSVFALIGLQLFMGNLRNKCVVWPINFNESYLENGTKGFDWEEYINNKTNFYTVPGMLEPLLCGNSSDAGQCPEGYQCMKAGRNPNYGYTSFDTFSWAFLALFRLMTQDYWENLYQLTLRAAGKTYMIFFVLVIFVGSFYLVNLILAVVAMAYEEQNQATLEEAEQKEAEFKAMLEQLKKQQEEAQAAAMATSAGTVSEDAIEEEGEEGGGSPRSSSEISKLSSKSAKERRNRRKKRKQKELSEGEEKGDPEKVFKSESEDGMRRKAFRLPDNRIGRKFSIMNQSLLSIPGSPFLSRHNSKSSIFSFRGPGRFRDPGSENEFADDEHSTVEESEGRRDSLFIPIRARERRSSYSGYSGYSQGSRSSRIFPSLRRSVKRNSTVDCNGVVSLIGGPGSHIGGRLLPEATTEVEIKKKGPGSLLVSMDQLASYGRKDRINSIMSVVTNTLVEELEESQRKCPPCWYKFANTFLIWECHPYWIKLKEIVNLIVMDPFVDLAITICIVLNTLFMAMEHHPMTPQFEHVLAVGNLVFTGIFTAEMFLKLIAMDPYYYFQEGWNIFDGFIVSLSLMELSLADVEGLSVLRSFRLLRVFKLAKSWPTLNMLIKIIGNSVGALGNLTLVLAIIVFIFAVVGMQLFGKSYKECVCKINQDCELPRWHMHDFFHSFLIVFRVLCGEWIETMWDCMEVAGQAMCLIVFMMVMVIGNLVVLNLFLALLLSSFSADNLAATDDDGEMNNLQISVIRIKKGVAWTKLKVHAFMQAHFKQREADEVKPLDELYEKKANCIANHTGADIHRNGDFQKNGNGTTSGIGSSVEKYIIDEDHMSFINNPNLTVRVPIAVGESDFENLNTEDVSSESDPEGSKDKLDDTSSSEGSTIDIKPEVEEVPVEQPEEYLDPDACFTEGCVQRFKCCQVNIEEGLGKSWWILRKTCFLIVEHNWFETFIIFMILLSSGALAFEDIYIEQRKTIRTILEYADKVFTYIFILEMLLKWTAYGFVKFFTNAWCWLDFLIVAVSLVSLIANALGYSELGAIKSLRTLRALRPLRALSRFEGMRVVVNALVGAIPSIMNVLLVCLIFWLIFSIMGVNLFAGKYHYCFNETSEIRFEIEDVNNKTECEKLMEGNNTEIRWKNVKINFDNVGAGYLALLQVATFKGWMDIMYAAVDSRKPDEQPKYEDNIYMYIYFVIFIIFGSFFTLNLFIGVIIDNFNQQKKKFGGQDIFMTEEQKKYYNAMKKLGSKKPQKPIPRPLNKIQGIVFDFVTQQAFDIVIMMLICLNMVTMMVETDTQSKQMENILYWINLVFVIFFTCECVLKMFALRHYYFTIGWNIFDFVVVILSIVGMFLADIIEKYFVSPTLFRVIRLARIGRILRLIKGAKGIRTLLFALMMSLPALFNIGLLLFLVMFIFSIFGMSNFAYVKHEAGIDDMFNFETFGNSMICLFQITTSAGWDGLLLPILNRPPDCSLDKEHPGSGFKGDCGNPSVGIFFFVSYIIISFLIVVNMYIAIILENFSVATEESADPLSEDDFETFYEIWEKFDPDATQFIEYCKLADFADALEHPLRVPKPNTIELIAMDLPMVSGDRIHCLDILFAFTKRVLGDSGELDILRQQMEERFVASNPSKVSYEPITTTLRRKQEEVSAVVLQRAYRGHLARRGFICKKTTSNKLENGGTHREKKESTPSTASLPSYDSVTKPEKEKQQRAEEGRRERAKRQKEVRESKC
In data set [13] the target is Sodium channel protein type 10 subunit alpha (Mus musculus, UniProt Q6QIY3). Description: Binding affinity to mouse Nav1.8 […] by radioligand binding assay.
The species entered for data set [14] is Homo sapiens. Description: Selectivity ratio of Kd for binding affinity to human recombinant Nav1.1 by radioligand binding assay to Kd for binding affinity to human recombinant Nav1.7 by radioligand binding assay.
Data set [15] is filed under the species Homo sapiens. In words: Selectivity ratio of Kd for binding affinity to human recombinant Nav1.2 by radioligand binding assay to Kd for binding affinity to human recombinant Nav1.7 by radioligand binding assay.
The species named for data set [16] is Homo sapiens. In words: Selectivity ratio of Kd for binding affinity to human recombinant Nav1.3 by radioligand binding assay to Kd for binding affinity to human recombinant Nav1.7 by radioligand binding assay.
The species named for data set [17] is Homo sapiens. Description: Selectivity ratio of Kd for binding affinity to human recombinant Nav1.4 by radioligand binding assay to Kd for binding affinity to human recombinant Nav1.7 by radioligand binding assay.
For data set [18], the species on record is Homo sapiens. Description: Selectivity ratio of Kd for binding affinity to human recombinant Nav1.5 by radioligand binding assay to Kd for binding affinity to human recombinant Nav1.7 by radioligand binding assay.
The species named for data set [19] is Homo sapiens. In words: Selectivity ratio of Kd for binding affinity to human recombinant Nav1.6 by radioligand binding assay to Kd for binding affinity to human recombinant Nav1.7 by radioligand binding assay.
Data set [20] is described as follows: Plasma concentration in mouse model of pain at 30 mg/kg, po during hot plate test. It counts as ADME, organism-based. Conditions: in vivo. In general terms: Thermal pain tests record how soon the animal reacts.
Data set [21] can be described thus: Plasma concentration in mouse model of pain at 30 mg/kg, po during tail immersion test. In kind it is ADME, organism-based. Conditions: in vivo.
Data set [22] in a line: Plasma concentration in mouse model of CFA-induced pain at 30 mg/kg, po during Hargreaves test. It counts as ADME, organism-based. Conditions: in vivo.
The nature of data set [23]: Ratio of plasma concentration in mouse model of pain at 30 mg/kg, po during hot plate test to IC50 for inhibition of mouse Nav1.7 expressed in HEK293 cells by electrophysiology assay. In kind it is organism-based. The following applies: in vivo.
Data set [24] can be described thus: Ratio of plasma concentration in mouse model of pain at 30 mg/kg, po during tail immersion test to IC50 for inhibition of mouse Nav1.7 expressed in HEK293 cells by electrophysiology assay. In kind it is organism-based. The following applies: in vivo.
Data set [25] in a line: Ratio of plasma concentration in mouse model of CFA-induced pain at 30 mg/kg, po during Hargreaves test to IC50 for inhibition of mouse Nav1.7 expressed in HEK293 cells by electrophysiology assay. It counts as organism-based. The following applies: in vivo.
Data set [26] has as its target Sodium channel protein type 9 subunit alpha (Homo sapiens, UniProt Q15858). Description: Inhibition of human Nav1.7 expressed in HEK293 cells by electrophysiology assay. In kind it is cell-based.
In data set [27] the target is T3, Sodium channel protein type 1 subunit alpha. Description: Inhibition of human Nav1.1 expressed in HEK293 cells by electrophysiology assay. In kind it is cell-based.
In data set [28] the target is T4, Sodium channel protein type 2 subunit alpha. Description: Inhibition of human Nav1.2 expressed in HEK293 cells by electrophysiology assay. It counts as cell-based.
Data set [29] concerns the target T1, Sodium channel protein type 4 subunit alpha. Description: Inhibition of human Nav1.4 expressed in HEK293 cells by electrophysiology assay. It counts as cell-based.
For data set [30], the target named is T2, Sodium channel protein type 5 subunit alpha. In words: Inhibition of human Nav1.5 expressed in HEK293 cells by electrophysiology assay. It counts as cell-based.
Data set [31] has as its target T5, Sodium channel protein type 8 subunit alpha. Description: Inhibition of human Nav1.6 expressed in HEK293 cells by electrophysiology assay. In kind it is cell-based.
For data set [32], the species on record is Homo sapiens. Description: Selectivity index, ratio of IC50 for inhibition of human Nav1.1 expressed in HEK293 cells by electrophysiology assay to IC50 for inhibition of human Nav1.7 expressed in HEK293 cells by electrophysiology assay. In kind it is cell-based.
For data set [33], the species on record is Homo sapiens. Description: Selectivity index, ratio of IC50 for inhibition of human Nav1.2 expressed in HEK293 cells by electrophysiology assay to IC50 for inhibition of human Nav1.7 expressed in HEK293 cells by electrophysiology assay. In kind it is cell-based.
For data set [34], the species on record is Homo sapiens. In words: Selectivity index, ratio of IC50 for inhibition of human Nav1.4 expressed in HEK293 cells by electrophysiology assay to IC50 for inhibition of human Nav1.7 expressed in HEK293 cells by electrophysiology assay. It counts as cell-based.
For data set [35], the species on record is Homo sapiens. In words: Selectivity index, ratio of IC50 for inhibition of human Nav1.5 expressed in HEK293 cells by electrophysiology assay to IC50 for inhibition of human Nav1.7 expressed in HEK293 cells by electrophysiology assay. It counts as cell-based.
Data set [36] is filed under the species Homo sapiens. Description: Selectivity index, ratio of IC50 for inhibition of human Nav1.6 expressed in HEK293 cells by electrophysiology assay to IC50 for inhibition of human Nav1.7 expressed in HEK293 cells by electrophysiology assay. In kind it is cell-based.
Data set [37] deals with Rattus norvegicus. In words: Analgesic activity in it dosed rat model of formalin-induced pain. It counts as functional.
Data set [38] relates to Rattus norvegicus. In words: Analgesic activity in it dosed rat model of pain by tail flick test. In kind it is functional.
Data set [39] relates to Rattus norvegicus. In words: Analgesic activity in it dosed rat model of pain by hot plate test. In kind it is functional.
In data set [40] the test system is Rattus norvegicus. Description: Analgesic activity in po dosed rat model of pain by Hargreaves test. It counts as functional.

Consider `CS(=O)(=O)NC(=O)c1cc(C2CC2)c(OCC2CCN(Cc3cc(C(F)(F)F)ccc3Cl)CC2)cc1F`, for which the Kd in [1] is 28 nM; in data set [2] it was 370 nM; in [8] it was 2.1 nM; in data set [9], 140 nM; in [10] it was 64 nM; in data set [11] it was 180 nM. In addition, the values for the Kd in data set [12] and in [13] were 210 nM and 13000 nM, respectively. The fraction unbound in [3] was 0.002. Also, the Ratio in data set [4] is 0.6; in [5], 5.5; in data set [6], 7.5; in data set [7], 12; in data set [23], 10; in data set [24], 10. Further, the Ratio in data set [25] worked out at 15. The Ratio Ki was found to be 40 in the data set listed under Homo sapiens [14]; 18 in the data set listed under Homo sapiens [15]; 51 in the data set filed under Homo sapiens [16]; 8 in the data set listed under Homo sapiens [17]; 100 in the data set filed under Homo sapiens [18]; 60 in the data set listed under Homo sapiens [19]. Further, the concentration in data set [20] is 10.5 µM; in data set [21], 10.5 µM; in data set [22], 16.1 µM.

For the compound `CSCC[C@@H]1NC(=O)CNC(=O)[C@H](CCC(=O)O)NC(=O)[C@@H]2CSSC[C@H](NC(=O)[C@H](Cc3ccc(O)cc3)NC(=O)[C@H](Cc3ccc(O)cc3)NC(=O)[C@@H]3CCCN3C(=O)CN)C(=O)N[C@@H](CCC(N)=O)C(=O)N[C@@H](CCCCN)C(=O)N[C@@H](Cc3c[nH]c4ccccc34)C(=O)N[C@@H](CCSC)C(=O)N[C@@H](CCC(N)=O)C(=O)N[C@@H]([C@@H](C)O)C(=O)N[C@H]3CSSC[C@H](NC(=O)[C@H](C(C)C)NC1=O)C(=O)N[C@@H](CCCNC(=N)N)C(=O)N[C@@H](CC(C)C)C(=O)N[C@@H](Cc1c[nH]c4ccccc14)C(=O)N[C@H](C(=O)N[C@@H](CCCCN)C(=O)N[C@@H](CCCCN)C(=O)N[C@@H](CCCCN)C(=O)N[C@@H](CC(C)C)C(=O)N[C@@H](CC(C)C)C(=O)O)CSSC[C@H](NC(=O)[C@H](CCCCN)NC(=O)[C@H](CCCNC(=N)N)NC(=O)[C@H](CCC(=O)O)NC(=O)[C@H](CO)NC(=O)[C@H](CC(=O)O)NC3=O)C(=O)N2`, the IC50 in [26] was 10 nM; in data set [27] it was 10000 nM; in [28], 1600 nM; in data set [29] it was 5300 nM; in [30] it was above 10000 nM; in data set [31], 1000 nM. In addition, the Ratio IC50 was 1000 in the data set filed under Homo sapiens [32]; 160 in the data set filed under Homo sapiens [33]; 530 in the data set listed under Homo sapiens [34]; above 1000 in the data set filed under Homo sapiens [35]; 100 in the data set filed under Homo sapiens [36]. Moreover, the ED is 1 to 5 µg in the data set with Rattus norvegicus [37], 0.3 to 7.5 µg in the data set with Rattus norvegicus [38], 0.3 to 7.5 µg in the data set with Rattus norvegicus [39] and 1.4 mg in the data set with Rattus norvegicus [40].
